The term pIC50 denotes the negative decadic logarithm of the IC50, by convention in mol/L.

Experimental findings from US20260015358A1, “BICYCLIC DERIVATIVES, COMPOSITIONS AND USES THEREOF” (Danatlas Pharmaceuticals Co., Ltd., priority 2023, published 2026) are described below.

The structures appear in SMILES notation. pIC50: −log10 of the molar value. Bounds are passed on as bounds.

Test [1] addresses T1, WRN [UniPro: Q14191 (WRN_HUMAN), N500-C946] (Homo sapiens (Human), UniProt Q14191). Nature of the test: WRN unwinding assay (FORKF DNA, fluorescence). The format is biochemical. The following applies: Table 14.
Test [2] concerns the target T1, WRN [UniPro: Q14191 (WRN_HUMAN), N500-C946]. Nature of the test: WRN ATPase assay (ADP-Glo). The following applies: WRN enzymatic activity assay. It is filed as biochemical. Background: ADP-Glo first removes unused ATP, then detects ADP through luciferase.

T1 sequence (Q14191 500-946): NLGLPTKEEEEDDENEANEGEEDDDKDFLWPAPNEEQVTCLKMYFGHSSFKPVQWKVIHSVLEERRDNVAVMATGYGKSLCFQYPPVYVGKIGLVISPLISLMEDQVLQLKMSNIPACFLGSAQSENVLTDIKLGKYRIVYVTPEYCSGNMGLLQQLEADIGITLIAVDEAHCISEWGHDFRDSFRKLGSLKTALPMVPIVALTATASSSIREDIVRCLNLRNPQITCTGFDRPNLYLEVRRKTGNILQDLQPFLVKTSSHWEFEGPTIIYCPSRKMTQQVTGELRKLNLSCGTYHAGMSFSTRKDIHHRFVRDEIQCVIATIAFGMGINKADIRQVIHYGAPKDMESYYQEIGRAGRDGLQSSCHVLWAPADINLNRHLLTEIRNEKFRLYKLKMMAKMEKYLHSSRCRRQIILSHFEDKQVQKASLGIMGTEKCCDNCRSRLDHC

As for `CCc1c(N2CCN(C(=O)C(=O)Nc3nccs3)CC2)c(=O)n2nc(N3CCn4cncc4C3)nc2n1CC(=O)Nc1ccc(C(F)(F)F)cc1F` [Example 261, 2-(4-(2-(5,6-Dihydroimidazo[1,5-a]pyrazin-7 (8H)-yl)-5-ethyl-4-(2-((2-fluoro-4-(trifluoromethyl)phenyl)amino)-2-oxoethyl)-7-oxo-4,7-dihydro-[1,2,4]triazolo[1,5-a]pyrimidin-6-yl)piperazin-1-yl)-2-oxo-N-(thiazol-2-yl)acetamide], the pIC50 in test [1] and in test [2] was greater than 7.00 each time.
For `CCc1c(N2CCN(C(=O)C(=O)Nc3nccs3)CC2)c(=O)n2nc(N3CCCOCC3)nc2n1CC(=O)Nc1ccc(C(F)(F)F)cc1F` [Example 262, 2-(4-(5-Ethyl-4-(2-((2-fluoro-4-(trifluoromethyl)phenyl)amino)-2-oxoethyl)-2-(1,4-oxazepan-4-yl)-7-oxo-4,7-dihydro-[1,2,4]triazolo[1,5-a]pyrimidin-6-yl)piperazin-1-yl)-2-oxo-N-(thiazol-2-yl)acetamide], the negative-log IC50 (pIC50) is greater than 7.00 in test [1] and 6.00 to 7.00 in test [2].
For `CCc1c(N2CCN(C(=O)CNC(=O)c3ccccc3F)CC2)c(=O)n2nc(N3Cc4cnn(C)c4C3)nc2n1CC(=O)Nc1cc(C)cs1` [Example 263, N-(2-(4-(5-Ethyl-2-(1-methyl-4,6-dihydropyrrolo[3,4-c]pyrazol-5 (1H)-yl)-4-(2-((4-methylthiophen-2-yl)amino)-2-oxoethyl)-7-oxo-4,7-dihydro-[1,2,4]triazolo[1,5-a]pyrimidin-6-yl)piperazin-1-yl)-2-oxoethyl)-2-fluorobenzamide], in that order: greater than 7.00 and greater than 7.00.
Consider `CCc1c(N2CCN(C(=O)C(=O)Nc3nccs3)CC2)c(=O)n2nc(N3CCN4C(=O)OC[C@H]4C3)nc2n1CC(=O)Nc1ccc(C(F)(F)F)cc1F` [Example 264, (R)-2-(4-(5-Ethyl-4-(2-((2-fluoro-4-(trifluoromethyl)phenyl)amino)-2-oxoethyl)-7-oxo-2-(3-oxotetrahydro-3H-oxazolo[3,4-a]pyrazin-7 (1H)-yl)-4,7-dihydro-[1,2,4]triazolo[1,5-a]pyrimidin-6-yl)piperazin-1-yl)-2-oxo-N-(thiazol-2-yl)acetamide], for which the pIC50 in test [1] and in test [2] was greater than 7.00 throughout.
For `CCc1c(N2CCN(C(=O)CNC(=O)NC(=O)c3cc(F)ccc3F)CC2)c(=O)n2nc(C3=CCOCC3)nc2n1CC(=O)Nc1ccc(C(F)(F)F)cc1Cl` [Example 265, N-((2-(4-(4-(2-((2-Chloro-4-(trifluoromethyl)phenyl)amino)-2-oxoethyl)-2-(3,6-dihydro-2H-pyran-4-yl)-5-ethyl-7-oxo-4,7-dihydro-[1,2,4]triazolo[1,5-a]pyrimidin-6-yl)piperazin-1-yl)-2-oxoethyl)carbamoyl)-2,5-difluorobenzamide], the pIC50 in test [1] and in test [2] was greater than 7.00 in each case.
Take `CCc1c(N2CCN(C(=O)CNC(=O)Cc3ccccc3)CC2)c(=O)n2nc(C3=CCOCC3)nc2n1CC(=O)Nc1ccc(C(F)(F)F)cc1Cl` [Example 267, N-(2-Chloro-4-(trifluoromethyl)phenyl)-2-(2-(3,6-dihydro-2H-pyran-4-yl)-5-ethyl-7-oxo-6-(4-((2-phenylacetyl)glycyl)piperazin-1-yl)-[1,2,4]triazolo[1,5-a]pyrimidin-4(7H)-yl)acetamide]: the pIC50 in test [1] and in test [2] was greater than 7.00 throughout.
With `CCc1c(N2CCN(C(=O)CNC(=O)c3cncs3)CC2)c(=O)n2nc(C3=CCOCC3)nc2n1CC(=O)Nc1ccc(C(F)(F)F)cc1Cl` [Example 268, N-(2-(4-(4-(2-((2-Chloro-4-(trifluoromethyl)phenyl)amino)-2-oxoethyl)-2-(3,6-dihydro-2H-pyran-4-yl)-5-ethyl-7-oxo-4,7-dihydro-[1,2,4]triazolo[1,5-a]pyrimidin-6-yl)piperazin-1-yl)-2-oxoethyl)thiazole-5-carboxamide], the pIC50 in test [1] and in test [2] was greater than 7.00 each time.
With `CCc1c(N2CCN(C(=O)CNC(=O)c3ccccc3O)CC2)c(=O)n2nc(C3=CCOCC3)nc2n1CC(=O)Nc1ccc(C(F)(F)F)cc1Cl` [Example 269, N-(2-(4-(4-(2-((2-Chloro-4-(trifluoromethyl)phenyl)amino)-2-oxoethyl)-2-(3,6-dihydro-2H-pyran-4-yl)-5-ethyl-7-oxo-4,7-dihydro-[1,2,4]triazolo[1,5-a]pyrimidin-6-yl)piperazin-1-yl)-2-oxoethyl)-2-hydroxybenzamide], the pIC50 in test [1] and in test [2] was greater than 7.00 throughout.
As to `CCc1c(N2CCN(C(=O)CNC(=O)c3cccc(O)c3)CC2)c(=O)n2nc(C3=CCOCC3)nc2n1CC(=O)Nc1ccc(C(F)(F)F)cc1Cl` [Example 270, N-(2-(4-(4-(2-((2-Chloro-4-(trifluoromethyl)phenyl)amino)-2-oxoethyl)-2-(3,6-dihydro-2H-pyran-4-yl)-5-ethyl-7-oxo-4,7-dihydro-[1,2,4]triazolo[1,5-a]pyrimidin-6-yl)piperazin-1-yl)-2-oxoethyl)-3-hydroxybenzamide], the pIC50 in test [1] and in test [2] was greater than 7.00 in each case.
For the compound `CCc1c(N2CCN(C(=O)CNC(=O)c3ncccc3O)CC2)c(=O)n2nc(C3=CCOCC3)nc2n1CC(=O)Nc1ccc(C(F)(F)F)cc1Cl` [Example 271, N-(2-(4-(4-(2-((2-Chloro-4-(trifluoromethyl)phenyl)amino)-2-oxoethyl)-2-(3,6-dihydro-2H-pyran-4-yl)-5-ethyl-7-oxo-4,7-dihydro-[1,2,4]triazolo[1,5-a]pyrimidin-6-yl)piperazin-1-yl)-2-oxoethyl)-3-hydroxypicolinamide], the values for the pIC50 in test [1] and in test [2] were greater than 7.00 and 6.00 to 7.00, respectively.
`CCc1c(N2CCN(C(=O)CNC(=O)CC3CCC3)CC2)c(=O)n2nc(C3=CCOCC3)nc2n1CC(=O)Nc1ccc(C(F)(F)F)cc1Cl` [Example 272, N-(2-Chloro-4-(trifluoromethyl)phenyl)-2-(6-(4-((2-cyclobutylacetyl)glycyl)piperazin-1-yl)-2-(3,6-dihydro-2H-pyran-4-yl)-5-ethyl-7-oxo-[1,2,4]triazolo[1,5-a]pyrimidin-4(7H)-yl)acetamide]: the pIC50 in test [1] and in test [2] was greater than 7.00 in each case.
As for `CCc1c(N2CCN(C(=O)CNC(=O)CC3COC3)CC2)c(=O)n2nc(C3=CCOCC3)nc2n1CC(=O)Nc1ccc(C(F)(F)F)cc1Cl` [Example 273, N-(2-Chloro-4-(trifluoromethyl)phenyl)-2-(2-(3,6-dihydro-2H-pyran-4-yl)-5-ethyl-6-(4-((2-(oxetan-3-yl)acetyl)glycyl)piperazin-1-yl)-7-oxo-[1,2,4]triazolo[1,5-a]pyrimidin-4(7H)-yl)acetamide], the results for the negative logarithm of the IC50 (pIC50) in test [1] and in test [2] were greater than 7.00 and 6.00 to 7.00, respectively.
For `CCc1c(N2CCN(C(=O)CNC(=O)Cc3ccccc3F)CC2)c(=O)n2nc(C3=CCOCC3)nc2n1CC(=O)Nc1ccc(C(F)(F)F)cc1Cl` [Example 274, N-(2-Chloro-4-(trifluoromethyl)phenyl)-2-(2-(3,6-dihydro-2H-pyran-4-yl)-5-ethyl-6-(4-((2-(2-fluorophenyl)acetyl)glycyl)piperazin-1-yl)-7-oxo-[1,2,4]triazolo[1,5-a]pyrimidin-4(7H)-yl)acetamide], in that order: greater than 7.00 and greater than 7.00.
In the case of `CCc1c(N2CCN(C(=O)CNC(=O)CC3CC3)CC2)c(=O)n2nc(C3=CCOCC3)nc2n1CC(=O)Nc1ccc(C(F)(F)F)cc1Cl` [Example 275, N-(2-Chloro-4-(trifluoromethyl)phenyl)-2-(6-(4-((2-cyclopropylacetyl)glycyl)piperazin-1-yl)-2-(3,6-dihydro-2H-pyran-4-yl)-5-ethyl-7-oxo-[1,2,4]triazolo[1,5-a]pyrimidin-4(7H)-yl)acetamide], the negative-log IC50 (pIC50) in test [1] and in test [2] was greater than 7.00 in each case.
`CCc1c(N2CCN(C(=O)CNC(=O)Cc3cscn3)CC2)c(=O)n2nc(C3=CCOCC3)nc2n1CC(=O)Nc1ccc(C(F)(F)F)cc1Cl` [Example 276, N-(2-Chloro-4-(trifluoromethyl)phenyl)-2-(2-(3,6-dihydro-2H-pyran-4-yl)-5-ethyl-7-oxo-6-(4-((2-(thiazol-4-yl)acetyl)glycyl)piperazin-1-yl)-[1,2,4]triazolo[1,5-a]pyrimidin-4(7H)-yl)acetamide]: the pIC50 in test [1] and in test [2] was greater than 7.00 in each case.
Take `CCc1c(N2CCN(C(=O)CNC(=O)c3cccc(NC)c3)CC2)c(=O)n2nc(C3=CCOCC3)nc2n1CC(=O)Nc1ccc(C(F)(F)F)cc1Cl` [Example 277, N-(2-(4-(4-(2-((2-Chloro-4-(trifluoromethyl)phenyl)amino)-2-oxoethyl)-2-(3,6-dihydro-2H-pyran-4-yl)-5-ethyl-7-oxo-4,7-dihydro-[1,2,4]triazolo[1,5-a]pyrimidin-6-yl)piperazin-1-yl)-2-oxoethyl)-3-(methylamino)benzamide]: the negative logarithm of the IC50 (pIC50) in test [1] and in test [2] was greater than 7.00 each time.
For the compound `CCc1c(N2CCN(C(=O)CNC(=O)c3cccc(NC(C)=O)c3)CC2)c(=O)n2nc(C3=CCOCC3)nc2n1CC(=O)Nc1ccc(C(F)(F)F)cc1Cl` [Example 278, 3-Acetamido-N-(2-(4-(4-(2-((2-chloro-4-(trifluoromethyl)phenyl)amino)-2-oxoethyl)-2-(3,6-dihydro-2H-pyran-4-yl)-5-ethyl-7-oxo-4,7-dihydro-[1,2,4]triazolo[1,5-a]pyrimidin-6-yl)piperazin-1-yl)-2-oxoethyl)benzamide], the pIC50 in test [1] and in test [2] was greater than 7.00 each time.
With `CCc1c(N2CCN(C(=O)CNC(=O)c3ccnc(O)c3)CC2)c(=O)n2nc(C3=CCOCC3)nc2n1CC(=O)Nc1ccc(C(F)(F)F)cc1Cl` [Example 279, N-(2-(4-(4-(2-((2-Chloro-4-(trifluoromethyl)phenyl)amino)-2-oxoethyl)-2-(3,6-dihydro-2H-pyran-4-yl)-5-ethyl-7-oxo-4,7-dihydro-[1,2,4]triazolo[1,5-a]pyrimidin-6-yl)piperazin-1-yl)-2-oxoethyl)-2-hydroxyisonicotinamide], the negative-log IC50 (pIC50) in test [1] and in test [2] was greater than 7.00 in each case.
